Experimental findings from US20230074558A1, “DIMERIC COMPOUNDS AS STING AGONISTS” (Mersana Therapeutics, Inc., priority 2019, published 2023) are described below.

Experiment [1] addresses T1, human STING (homozygous HAQ allele) (Homo sapiens, UniProt Q86WV6, G230A/H232R/R293Q/R71H).
T1 construct: THP1-Dual™ Human Monocytes cells with the homozygous HAQ allele, known to be a natural variant allele of STING; host or cells: THP1-Dual human monocytes
As to the kind of experiment: Activation of human STING signaling in THP1-Dual Human Monocytes cells, IRF3 luciferase reporter induction. The class given is cell-based. The settings on record: 24 hours incubation. As for the experimental part:
THP1-Dual™ Human Monocytes cells with the homozygous HAQ allele, known to be a natural variant allele of STING occurring in ˜20% of the human population (Invivogen) have been engineered with two independent gene reporter systems: a secreted embryonic alkaline phosphatase (SEAP) reporter gene for NFkB activity, and secreted luciferase reporter for […] (IRF3) activity were used. 4×10^5 THP1-Dual™ cells were incubated with test Compounds in a 5-fold titration steps from 1 to 0.0128 μM in RPMI media with 10% FBS, for 24 hours at 37° C. with 5% CO2. Cell culture supernatants (20 μl) from each incubated sample was added to resuspended QUANTI-Blue™ Solution (Invivogen, 180 μl) in each well of a flat-bottom 96-well plate, then incubated for 2 h. NFkB levels were evaluated using a spectrophotometer at 620-655 nm.
To evaluate IRF3 reporter levels, cell culture supernatant (20 μl) from each incubated sample was added to QUANTI-Luc™ assay solution (Invivogen, 50 μl), and the luminescence was measured with a SpectraMax M3 spectrophotometer (Molecular Devices).
The EC50 value was determined from the dose response curve based on reference Compounds. Table A provides the results for IRF3 reporter induction THP1-Dual™ Human Monocytes cells and Table B provides the results for IRF3 reporter induction in THP1-Dual™ KI-hSTING-R232 Cells (“A” means <1 μM; “B” means ≥1 μM and <10 μM; “C” means ≥10 μM).

For the next experiment, the target named is T2, human STING (Homo sapiens, UniProt Q86WV6, G230A/H232R/R293Q/R71H).
T2 construct: host or cells: THP1-Dual cells, digitonin-permeabilized
Briefly: Activation of human STING signaling in permeabilized THP1-Dual cells, IRF3 induction. The class given is cell-based. The settings on record: digitonin-permeabilized THP1-Dual cells, 30 minutes on ice then 24 h. As for the experimental part: 4×10^5 THP1-Dual™ cells (NF-κB-SEAP and IRF-Lucia luciferase Reporter Monocytes, Invivogen) were incubated with test Compounds in a 5-fold titration steps from […] in permeabilized buffer (50 mM HEPES pH 7.0, 100 mM KCl, 3 mM MgCl2, 85 mM sucrose, 0.2% BSA, 1 mM ATP, 0.1 mM GTP, 0.1 mM TTP, […]) for 30 minutes on ice. Cells were then washed and incubated in a fresh RPMI media with 10% FBS at 37° C. with 5% CO2 for 24 h. Cell culture supernatants from each sample were collected and NFkB and IRF3 were evaluated as above. Table B provides the results for IRF3 induction (“A” means <1 μM; “B” means ≥1 μM and <10 μM; “C” means ≥10 μM).

The EC50 is the concentration giving half of the maximal effect. A lower EC50 goes with a more potent agent.

T1 sequence (Q86WV6 whole entry R71H/G230A/H232R/R293Q): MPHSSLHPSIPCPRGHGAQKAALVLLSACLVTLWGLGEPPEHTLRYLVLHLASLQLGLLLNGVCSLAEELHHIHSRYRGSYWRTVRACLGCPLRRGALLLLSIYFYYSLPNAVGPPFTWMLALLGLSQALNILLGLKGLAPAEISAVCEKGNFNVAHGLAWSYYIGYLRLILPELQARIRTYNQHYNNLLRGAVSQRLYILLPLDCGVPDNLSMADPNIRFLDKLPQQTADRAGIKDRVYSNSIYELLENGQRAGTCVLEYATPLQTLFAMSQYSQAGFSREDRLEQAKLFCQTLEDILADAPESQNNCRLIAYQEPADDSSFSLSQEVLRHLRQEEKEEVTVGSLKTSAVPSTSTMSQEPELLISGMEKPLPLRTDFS
T2 sequence (Q86WV6 whole entry R71H/G230A/H232R/R293Q): as above

`O=C(O)CCC(=O)c1cc2ccc(-c3ccccc3-c3ccc4cc(C(=O)CCC(=O)O)sc4c3)cc2s1` [Compound 30, 4,4′-(1,2-phenylenebis(benzo[b]thiophene-6,2-diyl))bis(4-oxobutanoic acid)]: the EC50 (in experiment [1]; at human STING) was 1 to 10 µM in each case.

With `O=C(O)CCC(=O)c1cc2ccc(/C=C\c3ccc4cc(C(=O)CCC(=O)O)sc4c3)cc2s1` [Compound 36, (Z)-4,4′-(ethene-1,2-diylbis(benzo[b]thiophene-6,2-diyl))bis(4-oxobutanoic acid)], the EC50 (in experiment [1]; at human STING) was at least 10 µM in each case.

For the molecule `O=C(O)CCC(=O)c1cc2ccc(CNC(=S)NCc3ccc4cc(C(=O)CCC(=O)O)sc4c3)cc2s1` [Compound 48, 4,4′-(((thiocarbonylbis(azanediyl))bis(methylene))bis(benzo[b]thiophene-6,2-diyl))bis(4-oxobutanoic acid)], the EC50 (in experiment [1]; on human STING) was at least 10 µM each time.
